Structures can show the parent of a compound that is named as a salt.
tested on: NF-kB-dependent TNF-α secretion; assay: TNF-α secretion assay in THP-1 cells (counter screen, HTRF); type: cell-based; conditions: Homo sapiens, Pam3CSK4-stimulated, 3 hours
Protocol: Monocytic THP-1 cells were maintained according to providers' instructions in RPMI media as described above. […] Experimental compounds were prepared and added as described above. TNF-α secretion was triggered by the addition of either 1 μg/mL LPS (Sigma, #L4391) or 100 ng/mL Pam3CSK4 (Invivogen, #tlrl-pms) depending on the experiment, and cells were incubated for 3 hours. 10 μL supernatant was removed, and TNF-α levels were monitored using an HTRF assay (CisBio, #62TNFPEC) according to manufacturers' instructions. Viability was monitored as described above.
IC50 values were calculated from the plot of percentage of inhibition versus the inhibitor concentration by a logistics fit according to: y=A2+(A1−A2)/(1+(x/IC50)^p) where y is the %-inhibition at the inhibitor concentration, x. A1 is the lowest inhibition value, i.e. 0%, and A2 the maximum inhibition value, i.e. 100%. The exponent, p, is the Hill coefficient. The curve fitting was conducted with an internally developed software suite. […]

SMILES | IC50 [µM]
Cc1cc(C(F)(F)F)cc(O)c1-c1ccc(N[C@H]2CC[C@H]3CC[C@@H]2N3C)nn1 (single isomer, unassigned) [Ex 85a] | > 100
Cc1cc(C(F)(F)F)cc(O)c1-c1ccc(N[C@H]2CC[C@H]3CC[C@@H]2N3CCO)nn1 (single isomer, unassigned) [Ex 86a] | > 100
CCN1CCC[C@@H](Nc2ccc(-c3c(C)cc(C(F)(F)F)cc3O)nn2)C1 [Ex 1, (R)-2-(6-((1-Ethylpiperidin-3-yl)amino)pyridazin-3-yl)-3-methyl-5-(trifluoromethyl)phenol] | > 100
Cc1cc(N[C@@H]2CCCN(C)C2)nnc1-c1ccc(C(F)(F)F)cc1O [Ex 4, (R)-2-(4-Methyl-6-((1-methylpiperidin-3-yl)amino)pyridazin-3-yl)-5-(trifluoromethyl)phenol] | > 100
Cc1cc(-c2c(C)cc(C(F)(F)F)cc2O)nnc1N[C@@H]1CCCN(C)C1 [Ex 5, (R)-3-Methyl-2-(5-methyl-6-((1-methylpiperidin-3-yl)amino)pyridazin-3-yl)-5-(trifluoromethyl)phenol] | > 33
Cc1cc(C(F)(F)F)cc(O)c1-c1ccc(N[C@@H]2CCCN(CCO)C2)nn1 [Ex 6, (R)-2-(6-((1-(2-Hydroxyethyl)piperidin-3-yl)amino)pyridazin-3-yl)-3-methyl-5-(trifluoromethyl)phenol] | > 100
Cc1cc(C(F)(F)F)cc(O)c1-c1ccc(NC2CCCN(C(C)C)C2)nn1 (centres unmarked) [Ex 7, 2-(6-((1-Isopropylpiperidin-3-yl)amino)pyridazin-3-yl)-3-methyl-5-(trifluoromethyl)phenol] | > 100
Cc1cc(C(F)(F)F)cc(O)c1-c1ccc(NC2CNCC(F)(F)C2)nn1 (centres unmarked) [Ex 9, 2-(6-((5,5-Difluoropiperidin-3-yl)amino)pyridazin-3-yl)-3-methyl-5-(trifluoromethyl)phenol] | > 100
CCN1CCC[C@@H](Nc2nnc(-c3c(C)cc(C(F)(F)F)cc3O)cc2C#N)C1 [Ex 11, (R)-3-((1-Ethylpiperidin-3-yl)amino)-6-(2-hydroxy-6-methyl-4-(trifluoromethyl)phenyl)pyridazine-4-carbonitrile] | > 100
Cc1cc(C(F)(F)F)cc(O)c1-c1ccc(N[C@@H]2CCCN(C)C2)nn1 [Ex 12, (R)-3-Methyl-2-(6-((1-methylpiperidin-3-yl)amino)pyridazin-3-yl)-5-(trifluoromethyl)phenol] | > 100
Cc1cc(-c2c(C)cc(C(F)(F)F)cc2O)nnc1N[C@@H]1CCCN(CCO)C1 [Ex 13, (R)-2-(6-((1-(2-Hydroxyethyl)piperidin-3-yl)amino)-5-methylpyridazin-3-yl)-3-methyl-5-(trifluoromethyl)phenol] | > 100
Cc1cc(C(F)(F)F)cc(O)c1-c1ccc(N[C@H]2CCN(C)C2)nn1 [Ex 18, (S)-3-Methyl-2-(6-((1-methylpyrrolidin-3-yl)amino)pyridazin-3-yl)-5-(trifluoromethyl)phenol] | > 100
Oc1cc(Cl)cc(Cl)c1-c1ccc(NCC(F)(F)F)nn1 [Ex 27, 3,5-Dichloro-2-(6-((2,2,2-trifluoroethyl)amino)pyridazin-3-yl)phenol] | > 100
Cc1cc(C(F)(F)F)cc(O)c1-c1ccc(N[C@H]2CCCNC2)nn1 [Ex 33, (S)-3-Methyl-2-(6-(piperidin-3-ylamino)pyridazin-3-yl)-5-(trifluoromethyl)phenol] | > 100
Cc1cc(C(F)(F)F)cc(O)c1-c1ccc(N[C@H]2CCCN(C)C2)nn1 [Ex 36, (S)-3-Methyl-2-(6-((1-methylpiperidin-3-yl)amino)pyridazin-3-yl)-5-(trifluoromethyl)phenol] | > 100
CN1CCC[C@@H](Nc2ccc(-c3c(O)cc(C(F)(F)F)cc3C(F)(F)F)nn2)C1 [Ex 39, (R)-2-(6-((1-Methylpiperidin-3-yl)amino)pyridazin-3-yl)-3,5-bis(trifluoromethyl)phenol] | > 100
Cc1cc(C(F)(F)F)cc(O)c1-c1nnc(N[C@@H]2CCCN(C)C2)c(C)c1C [Ex 40, 2-(4,5-Dimethyl-6-(((R)-1-methylpiperidin-3-yl)amino)pyridazin-3-yl)-3-methyl-5-(trifluoromethyl)phenol TFA-salt] | > 33
Cc1cc(C(F)(F)F)cc(O)c1-c1ccc(O[C@@H]2CCCN(C)C2)nn1 [Ex 42, (R)-3-Methyl-2-(6-((1-methylpiperidin-3-yl)oxy)pyridazin-3-yl)-5-(trifluoromethyl)phenol] | > 100
Oc1cc(Cl)cc(Cl)c1-c1ccc(NC2CC2)nn1 [Ex 44, 3,5-Dichloro-2-(6-(cyclopropylamino)pyridazin-3-yl)phenol] | > 100

SMILES | IC50 [µM]
CN1CCC[C@@H](Nc2ccc(-c3c(O)cc(Cl)cc3Cl)nn2)C1 [Ex 45, (R)-3,5-Dichloro-2-(6-((1-methylpiperidin-3-yl)amino)pyridazin-3-yl)phenol TFA-salt] | > 100
Cc1cc(C(F)(F)F)cc(O)c1-c1ccc(Nc2cccnc2)nn1 [Ex 46, 3-Methyl-2-(6-(pyridin-3-ylamino)pyridazin-3-yl)-5-(trifluoromethyl)phenol] | > 100
Cc1cc(C)c(-c2ccc(N[C@@H]3CCCN(C)C3)nn2)c(O)c1 [Ex 47, (R)-3,5-Dimethyl-2-(6-((1-methylpiperidin-3-yl)amino)pyridazin-3-yl)phenol] | > 100
Cc1c(N[C@@H]2CCCN(C)C2)nnc(-c2ccc(C(F)(F)F)cc2O)c1C [Ex 48, (R)-2-(4,5-Dimethyl-6-((1-methylpiperidin-3-yl)amino)pyridazin-3-yl)-5-(trifluoromethyl)phenol] | > 100
CN1CCC[C@@H](Nc2ccc(-c3c(O)cc(C(F)(F)F)cc3Cl)nn2)C1 [Ex 49, (R)-3-Chloro-2-(6-((1-methylpiperidin-3-yl)amino)pyridazin-3-yl)-5-(trifluoromethyl)phenol] | > 100
Cc1ccc(-c2nnc(N[C@@H]3CCCN(C)C3)cc2C(F)(F)F)c(O)c1 [Ex 50, (R)-5-Methyl-2-(6-((1-methylpiperidin-3-yl)amino)-4-(trifluoromethyl)pyridazin-3-yl)phenol] | > 100
CN1CCC[C@@H](Nc2ccc(-c3c(O)cc(Cl)cc3C(F)(F)F)nn2)C1 [Ex 51, (R)-5-Chloro-2-(6-((1-methylpiperidin-3-yl)amino)pyridazin-3-yl)-3-(trifluoromethyl)phenol] | > 100
CN1CCC[C@@H](Nc2cc(C(F)(F)F)c(-c3ccc(C(F)(F)F)cc3O)nn2)C1 [Ex 53, (R)-2-(6-((1-Methylpiperidin-3-yl)amino)-4-(trifluoromethyl)pyridazin-3-yl)-5-(trifluoromethyl)phenol] | > 33
Cc1cc(C(F)(F)F)cc(O)c1-c1ccc(NC2CCC(C(F)(F)F)NC2)nn1 (centres unmarked) [Ex 62, 3-Methyl-5-(trifluoromethyl)-2-(6-((6-(trifluoromethyl)piperidin-3-yl)amino)pyridazin-3-yl)phenol] | > 100
Cc1cc(C(F)(F)F)cc(O)c1-c1cc(C(F)(F)F)c(N[C@@H]2CCCN(C)C2)nn1 [Ex 64, (R)-3-Methyl-2-(6-((1-methylpiperidin-3-yl)amino)-5-(trifluoromethyl)pyridazin-3-yl)-5-(trifluoromethyl)phenol] | > 100
Cc1cc(-c2ccc(C(F)(F)F)cc2O)nnc1N[C@@H]1CCCN(C)C1 [Ex 65, (R)-2-(5-Methyl-6-((1-methylpiperidin-3-yl)amino)pyridazin-3-yl)-5-(trifluoromethyl)phenol] | > 33
CN1CCC[C@@H](Nc2cc(C(F)(F)F)c(-c3ccc(Cl)cc3O)nn2)C1 [Ex 70, (R)-5-Chloro-2-(6-((1-methylpiperidin-3-yl)amino)-4-(trifluoromethyl)pyridazin-3-yl)phenol] | > 100
Cc1cc(N[C@@H]2CCCN(C)C2)nnc1-c1ccc(Cl)cc1O [Ex 71, (R)-5-Chloro-2-(4-methyl-6-((1-methylpiperidin-3-yl)amino)pyridazin-3-yl)phenol] | > 100
Cc1cc(C(F)(F)F)cc(O)c1-c1ccc(N[C@@H]2CCCNC2)nn1 [Ex 74, (R)-3-Methyl-2-(6-(piperidin-3-ylamino)pyridazin-3-yl)-5-(trifluoromethyl)phenol] | > 100
Cc1cc(C(F)(F)F)cc(O)c1-c1ccc(N[C@@H]2CCCN(CC(C)(C)O)C2)nn1 [Ex 80, (R)-2-(6-((1-(2-Hydroxy-2-methylpropyl)piperidin-3-yl)amino)pyridazin-3-yl)-3-methyl-5-(trifluoromethyl)phenol] | > 33
Cc1cc(N[C@@H]2CCCN(C)C2)nnc1-c1ccc(OC(F)(F)F)cc1O [Ex 82, (R)-2-(4-Methyl-6-((1-methylpiperidin-3-yl)amino)pyridazin-3-yl)-5-(trifluoromethoxy)phenol] | > 100
Cc1cc(C(F)(F)F)cc(O)c1-c1ccc(N[C@@H]2CC[C@H](CO)N(C)C2)nn1 [Ex 87a, 2-(6-(((3R,6R)-6-(Hydroxymethyl)-1-methylpiperidin-3-yl)amino)pyridazin-3-yl)-3-methyl-5-(trifluoromethyl)phenol] | > 100
Cc1cc(C(F)(F)F)cc(O)c1-c1ccc(N[C@H]2CC[C@@H](CO)N(C)C2)nn1 [Ex 87b, 2-(6-(((3S,6S)-6-(Hydroxymethyl)-1-methylpiperidin-3-yl)amino)pyridazin-3-yl)-3-methyl-5-(trifluoromethyl)phenol] | 77
Cc1cc(C(F)(F)F)cc(O)c1-c1ccc(N[C@H]2CCCN[C@H]2C)nn1 [Ex 91a, 3-Methyl-2-(6-(((2S,3S)-2-methylpiperidin-3-yl)amino)pyridazin-3-yl)-5-(trifluoromethyl)phenol] | > 100

— patent US11208399B2, “NLRP3 inflammasome inhibitors” (Novartis AG, priority 2019, dated 2021)
